# According to patent US5998368A, “Derivatives of structurally modified VIP and pharmaceutical compositions containing them” (Yeda Research and Development Co. Ltd., priority 1991, dated 1999):
# Read-outs that look alike come from different tables or passages of the source.
# Legend:
# [1] = test system: penile erection in normal male; conditions: cited from earlier work
# [2] = Skin penetration and body distribution of 125I-labelled conjugates after topical application to the penis; assay type: in vivo
# Text: These experiments were divided into two groups. In the first group of experiments we performed a time course of the distribution of radioactively labelled stearoyl-Nle^17 -VIP (in Sefsol 318™), applied transdermally to the penis of the animals, in various organs of the body. In the second group of experiments we compared the penetration of radioactively labelled VIP, Nle^17 -VIP St-VIP and St-Nle^17 -VIP with Sefsol 318™ following transdermal application. Two to four animals were used for each data point. The derivatives were labelled with 1251 using the chloramine-T based method^(14).
# In the first group of experiments, stearoyl-Nle^17 -VIP was radioactively labelled with I^125. Each animal received 2.2 million CPM, in 6μl of the radioactive material+ 26μl ointment (ointment No. 4 in Example 5). Two animals were used for each time point in two independent experiments. To avoid oral absorbance, the animal mouth was sealed. At indicated times following topical application, animals were sacrificed and duplicate tissue samples were removed, weighed and counted in a gamma counter. Tissues measured were: lungs (LU), heart (HE), kidneys (KI), liver (Li) and intestine (IN).
# In the second group of experiments compositions of Sefsol 318™ and VIP, St-VIP, Nle^17 -VIP and St-Nle^17 -VIP were prepared. The experiments were performed as in FIG. 7 with the only difference that each animal received a 2.4 million CPM, 2-4 animals were utilized for each variable. Animals were sacrificed 30 minutes after the application of the drug.
# [3] = test system: penile reflexes in castrated rats; test: Penile reflexes (E2, cups) in castrated rats after transdermal application; assay type: in vivo, rat
# Protocol: (a) The ointment composition was: 31.2 μl 10% Sefsol 318™ (glyceryl monocaprylate), and either 0.24 mg stearoyl-VIP in 31.2 μl DMSO (1-2μl per animal) (SEFS in FIG. 1) or 0.24 rig stearoyl-Nle^17 -VIP in the above (SEFS* in FIG. 1).
# (b) For other analogs described hereinafter 10 μl of solution were used per animal containing 7 μg of active material in a vehicle containing 5% Sefsol and 20% isopropanol.
# In a further set of experiments the effects of stearoyl-VIP compounded with Sefsol 318™ were compared with those of stearoyl-Nle^17 -VIP compounded with Sefsol 318™.
# In a second type of biological experiments the effects of compositions containing other modified VIP conjugates compounded with Sefsol 318™ were tested.
# Rats with reduced sexual potential due to castration were employed. Male rats (250-300 g, about three month old) were kept in a 12-hours light, 12-hours dark cycle. Experiments were always conducted within the dark period, 2-6 hours after the onset of darkness. Male rats were castrated and given partial testosterone replacement (4 μg/100 g body weight) in the form of daily injection for 14-21 consecutive days (the duration of the experiment). Experiments were conducted one week following surgery.
# A procedure was utilized that employed the technique that measures sexual reflexes in the penis, which enables direct evaluation of penile erection following transdermal administration of the drug. Successful reproduction depends, in large part, upon the precise execution of temporally organized, functionally related behavioural units. In these experiments, we concentrated on the final stages of the erection process (reddening of the penis accompanied by its distension and extension leading to complete erection) and monitored the latency time to the first E2 and first cup(^14).
# For testing, each animal was restrained in a supine position with the anterior portion of its body enclosed in a loosely fitting cylinder (7 cm diam). After a belt was secured around the torso, the glans penis was extruded from its sheath and gently held perpendicular to the abdomen by a thin wooden applicator positioned at the posterior of the penis. The legs of the male were held by the observer and this position was maintained throughout the test period. The duration of the session was 45 minutes. The latencies and numbers of E2 and cups were recorded and plotted.
# An E2 is defined as a complete erection which can be followed by cup in which the penile tip is turned into a cup-like structure, whereby the glands flare out such that the penis is wider in its distal portion than its base. This final stage requires E2 and is probably a pre-requisite for ejaculation (13). Using, all the parameters one can obtain a reliable measure of the sexual activity of the tested rat.
# Six to ten animals were tested in this paradigm for each variable. Control animals received ointment compositions without the modified VIP conjugate.
# [4] = Stability of the test material; assay type: physicochemical
# Sprague Dawley rats [5] = test: Single dose toxicity, intravenous (tail vein); assay type: in vivo, rat; conditions: for acute intravenous median lethal dose (LD50): with vehicle
# Protocol: The single dose toxicity of stearoyl-Nle^17 -VIP injected intravenously, into the tail vein, was investigated in 4 groups of six male and six female rates [Sprague Dawley (S.D.) strain, purchased from Levinstein, Yokneam, Israel).
# Test Groups constitution:
# 2. Vehicle (Sefsol 5% + isopropanol 50%)
# 3. Stcaroyl-Nle^17 -VIP 7 μg/rat + vehicle
# 4. Stearyol-Nle^17 -VIP 7,000 μg/rat + vehicle
# Sprague Dawley rats [6] = test: Repeated dose toxicity, topical, 13 weeks
# Protocol: The repeated dose toxicity of stearoyl-Nle^17 -VIP administered topically was investigated in 80 SPF (Specified pathogen free) rats divided into 4 groups of ten male and ten female Sprague Dawley (S.D.) strain rats purchased from Harlan, Olac, England.
# Group 1: 7 μg stearoyl-Nle^17 -VIP+vehicle (1× dose)
# Group 2: 700 μg stearoyl-Nle^17 -VIP+vehicle (100× dose)
# Group 4: Vehicle only (5% Sefsol+20% isopropanol)
# [7] = Table 3, topical, 7 μg in 5% Sefsol and 20% isopropanol, castrated rats, 45 min session
# [8] = Group 3, 7 μg/rat + vehicle i.v.
# [9] = daily topical 7, 700, 3500 μg, 13 weeks
# [10] = daily topical 7, 700, 3500 μg, 13 weeks, male and female rats
substance,measurement,setting,value
Vasoactive intestinal peptide (HSDAVFTDNYTRLRKQMAVKKYLNSILN) [VIP],penile response,"[1]; as little as 1 μg into the corpus cavernosum, coupled with sexual stimulation",facilitated full erection
same,penile response,"[1]; up to 20 μg into the corpus cavernosum, without sexual stimulus",caused only slight swelling of the penis but not erection
stearoyl-norleucine^17 -VIP [St-Nle^17 -VIP],"disappearance from organs, time after administration","[2]; 125I-labelled, topical in Sefsol 318, FIG. 7",2.5 h
same,"peak deliveries to organs, time after administration","[2]; 125I-labelled, topical in Sefsol 318, lungs, heart, kidneys, liver, intestine, FIG. 7",15 to 60 min
same,"concentrations in kidney, liver and intestines","[2]; 30 minutes after topical application in Sefsol 318, compared with VIP, Nle17-VIP, St-VIP, FIG. 8",highest concentrations
same,No. of E2,[3]; [7],9
same,No. of cups,[3]; [7],27
same,biologically active dose,"[3]; pharmacological experimentation, rat",7 μg per rat
same,latency to first E2,"[3]; topical, in Sefsol 318 ointment (SEFS*), castrated rats, 45 min session, FIG. 1",about 1 minute
same,latency to first cup,"[3]; topical, in Sefsol 318 ointment (SEFS*), castrated rats, 45 min session, FIG. 2",10 min
same,number of E2 during the test period,"[3]; topical, in Sefsol 318 ointment, castrated rats, 45 min session, FIG. 3",34
same,number of cups,"[3]; topical, in Sefsol 318 ointment, castrated rats, 45 min session, FIG. 4",20
same,efficiency according to all the four parameters tested,"[3]; transdermal, Sefsol 318 composition, compared with stearoyl-VIP in Sefsol 318",more efficient
same,stability compared with stearoyl-VIP,[4],more stable
same,Stability,[4]; powder,for a year
same,Stability,[4]; refrigerated in a solubilized form,for at least six weeks
same,mortality,Sprague Dawley rats [5]; [8],No mortality
same,"necrotic reaction at the site of injection (tail skin), share of animals",Sprague Dawley rats [5]; [8],58%
same,"necrotic reaction at the site of injection (tail skin), share of animals","Sprague Dawley rats [5]; Group 4, 7,000 μg/rat + vehicle i.v.",all the animals
same,mortality,"Sprague Dawley rats [5]; Group 4, 7,000 μg/rat + vehicle i.v., within 3 hours after administration",Seven rats (3 male and 4 female out of 12) died
same,acute intravenous median lethal dose (LD50),Sprague Dawley rats [5]; combined males and females,"< 7,000 μg"
same,acute intravenous median lethal dose (LD50),Sprague Dawley rats [5]; male rats,"7,000 μg/male rat"
same,other side effects,Sprague Dawley rats [5]; surviving rats of all groups,No other side effects
same,body weight gain,"Sprague Dawley rats [5]; two weeks after i.v. dose, ANOVA versus vehicle control group",increased weight gain
same,adverse effects,Sprague Dawley rats [6]; [9],No dose related adverse effects
same,"clinical pathology (hematology, clinical chemistry)",Sprague Dawley rats [6]; [9],No dose related or sex related biologically meaningful treatment effects
same,body weight gain and food consumption,Sprague Dawley rats [6]; [10],No significant differences
same,mortality,Sprague Dawley rats [6]; [10],No mortality associated with drug application
same,organ weight analysis,"Sprague Dawley rats [6]; daily topical 7, 700, 3500 μg, 13 weeks, versus control group",No treatment related differences
same,"overall conclusion, serious adverse effects","Sprague Dawley rats [6]; daily topical application for 13 weeks, any of the dosages tested",did not cause any serious adverse effects
